These results are taken from patent US10883962B2, “Electrical double layer in nanopores for detection and identification of molecules and submolecular units” (University of Kentucky Research Foundation, priority 2017, dated 2021).

Each structure is given as a SMILES string.

Data set [1] is described as follows: Density and estimated spherical radius of analytes and supporting ions. The data set is classed as physicochemical.
A short description of data set [2]: Expected valence charge of analytes and ions based on pKas. The data set is classed as physicochemical. The note with it: for Expected valence charge: maximal negative charge, intraluminal pH of 12; for Valence charge level (Zanalyte): used in the empirical model, Example 2. The source says: In order to investigate any dependency of the signal on the analyte concentration, the concentrations of the molecular analytes were varied from 10^−8 to 10^−2 M in 10^−5 M NaF solution. Because NaF dissociates into Na^+ and F^−, and F^− will form HF in solution (due to HF being a weak acid), it was important to ensure that the concentration of HF was negligible compared with the concentration of the molecular analytes and supporting electrolytes. […] The specific analytes used in this study were chosen to have distinct acid dissociation constants (pKas) and to be relatively similar in size (Table 2). […] NaCl was chosen as the supporting electrolyte in this pH experiment in order to maintain a homogeneous ion population with the titration reagents, NaOH and HCl. It was desirable to avoid using HF as a titration reagent, due to the risk of damaging the nanopore device and because HF is a weak acid. In low pH conditions, the concentration of undissociated HF would increase to non-negligible levels. Since HCl and NaOH are a strong acid and base, respectively, there was no risk of producing undissociated molecules at low or high pHs. […] In order to characterize this energetic balance, we estimate the pH of the intraluminal environment by considering the variable valence charges and pKas of the analytes. Table 3 lists the expected charge on each analyte at different pHs based on the pKas of the individual analytes.

For data set [3] the following is noted: cited from earlier work.
Data set [4] in a line: Saturation of NaF solution. In kind it is physicochemical. The note with it: in this study. The source says:
The SNR is consistent for electrolyte concentrations <1 M, and the sudden decrease in SNR at 1 M NaF is indicative of a saturation effect, where saturation of the solution would preclude significant changes to the electrochemical potential of the EDL. By considering the charge density and steady state double layer potential as response curves, we can explain the loss of signal quality at high concentrations of supporting electrolyte (FIG. 3(c)). The increase in steady-state potential and charge density (calculated from the model) slows at high concentrations, and a similar effect occurs experimentally to the steady state double layer potential. The decrease in slope of the response curves at high concentration will result in smaller signals from the analytes, resulting in the decrease in SNR observed at high concentrations of supporting electrolyte. Since the measured steady state potential and solution saturation follow similar curves, this may be a useful method for quantitatively characterizing solutions, as well as a method of characterizing individual analyte molecules.

For data set [5] the following is noted: 21° C.; cited from earlier work.

For the molecule `O=C(O)CC(O)(CC(=O)O)C(=O)O` [Citric Acid], the Estimated spherical radius in data set [1] was 0.37 nm. This molecule returned an Expected valence charge in data set [2] of −3. In addition, the “Valence charge at pH” value in data set [2] (pH 1) is 0; in data set [2] (pH 2, 3), 0; in data set [2] (pH 4), −1; in data set [2] (pH 5, 6), −2; in data set [2] (pH 7, 8, 9, 10) it was −3; in data set [2] (pH 11), −3. Moreover, in data set [2] (pH 12), the “Valence charge at pH” value is recorded as −3. Also, in data set [2], the “Valence charge level (Zanalyte)” value is −3.

On to `Cl` [Cl−], for which the Estimated spherical radius in data set [1] is 0.21 nm.

`F` [F−]: the Estimated spherical radius in data set [1] is on record as 0.17 nm. Further, the Expected valence charge in data set [2] is listed as −1.

With `Oc1ccc(O)cc1` [Hydroquinone], the Estimated spherical radius in data set [1] is 0.32 nm. In addition, the “pKa 1” value in data set [3] is given as 10.35. In data set [2], this molecule had an Expected valence charge of −1. In addition, the “Valence charge at pH” value in data set [2] (pH 1) is on record as 0; in data set [2] (pH 2, 3), 0; in data set [2] (pH 4), 0; in data set [2] (pH 5, 6), 0; in data set [2] (pH 7, 8, 9, 10), 0; in data set [2] (pH 11) it was −1. Also, the “Valence charge at pH” value in data set [2] (pH 12) is −1. In data set [2], the “Valence charge level (Zanalyte)” value is −1.

As to `[K+]` [K^+], in data set [1], the Estimated spherical radius was 0.26 nm. Besides, the Expected valence charge in data set [2] is given as 1.

Turning to `O=C1O[C@H]([C@@H](O)CO)C(O)=C1O` [L-Ascorbic acid], the Estimated spherical radius in data set [1] is listed as 0.35 nm. Besides, the “pKa 2” value in data set [3] was 11.7. Moreover, in data set [2], the Expected valence charge was −2. The “Valence charge at pH” value in data set [2] (pH 1) was 0; in data set [2] (pH 2, 3), 0; in data set [2] (pH 4), 0; in data set [2] (pH 5, 6), −1; in data set [2] (pH 7, 8, 9, 10) it was −1; in data set [2] (pH 11) it was −1. The “Valence charge at pH” value in data set [2] (pH 12) is −2. Besides, the “Valence charge level (Zanalyte)” value in data set [2] is reported as −2.

On to `[F-].[Na+]` [NaF], for which the “Saturated NaF solution reached” value in data set [4] was “approximately 1 M”. Also, in data set [5], the “Saturation of NaF” value was 0.96 M.

For `[Na+]` [Na^+], the Estimated spherical radius in data set [1] is recorded as 0.21 nm. This molecule also showed an Expected valence charge in data set [2] of 1.

Regarding `O=C(O)C(=O)O` [Oxalic acid], the Estimated spherical radius in data set [1] is recorded as 0.27 nm. In data set [2], this molecule came in with an Expected valence charge of −1. The “Valence charge at pH” value is listed as 0 in data set [2] (pH 1); −1 in data set [2] (pH 2, 3); −1 in data set [2] (pH 4); −1 in data set [2] (pH 5, 6); −1 in data set [2] (pH 7, 8, 9, 10); −1 in data set [2] (pH 11). Moreover, in data set [2] (pH 12), the “Valence charge at pH” value is reported as −1. Moreover, in data set [2], the “Valence charge level (Zanalyte)” value is −1.
